Data: patent US6187906A, “Methods to improve neural outcome” (Aukland Uniservices Limited, priority 1998, dated 2001)

System: hypoxic-ischemic brain injury
Test: Hypoxic-ischemic brain injury in adult rats, central GPE (Experiment 3)
Type: in vivo, Wistar rats
Method: The objective of this study was to compare the effects of treatment with GPE to that of vehicle given 2 hours after a hypoxic-ischemic brain injury.
Unilateral hypoxic-ischemic injury was induced in adult 300±10 g) male Wistar rats. The rats underwent unilateral carotid ligation under light halothane anaesthesia. Following one hour recovery they were placed in an incubator at 34C at 85±5% humidity for one hour before injury. They were subjected to 10 min inhalational asphyxia (FiO2 6.0%) and maintained in the incubator for one hour after asphyxia. Two hours after the termination of the inhalation injury, a single stereotaxically controlled lateral cerebroventricular injection of either 3 μGPE (n=15) or phosphate buffered saline alone (n=15) was given. The animals were then maintained for 120 hrs, anaesthetized and the brains fixed in situ for histological assessment.
Surviving and dead neurons were discriminated with the use of a thionin/acid fuchsin staining technique [C. Williams, A. Gunn, C. Mallard, P. Gluckman Ped Res. (1990). A. Brown, J. Brierley, J. Neurol Sci, 16:59-84 (1971)]. The results are shown in FIG. 3; using a scoring technique. […] Similar to our previous study with IGF-1 the incidence of cortical infarction was lower following GPE treatment at 27% compared to the control/vehicle treated rats at 53% (Guan et al J Cereb Blood Flow Metab. 13:609-616 (1993)).
(The incidence of hippocampal damage was reduced following treatment with 3 μg GPE. The asterisk indicates a probability of under <0.05.
For this figure the columns A and B indicate the proportional loss of area (which can be extrapolated to indicate volume using the well-known principles of stereology) between the left and rights sides of the cortex of the brain, for either a control vehicle or 3 μG of GPE. Volumes were measured using computer-aided image analysis techniques. […] Neurones were counted after staining, with the aid of a microscope. […] Thus a single central injection of GPE following an asphyxial injury in the adult rat was associated with a marked improvement in outcome as assessed histologically.

For `NCC(=O)N1CCC[C@H]1C(=O)N[C@@H](CCC(=O)O)C(=O)O` [GPE, gly-pro-glu], the “incidence of hippocampal damage in the ligated hemisphere” value (3 μg GPE 2 hours after hypoxia, p<0.05 vs vehicle) was “reduced the incidence of hippocampal damage”, the “incidence of cortical infarction” value (3 μg GPE lateral cerebroventricular injection 2 hours after injury, 120 hrs, vehicle 53%) was 27% and the “number of damaged cells (FIG. 4, cortex area and live hippocampal neurones R/L)” value (3 μg GPE, single central injection, p 0.04) was “significant reduction in the number of damaged cells”.
